How the values were obtained:
Assay type in all cases: cell-based
[1] = target: T1, human muscarinic M1 receptors (Homo sapiens, UniProt P11229); test: IP production in A9L cells with human M1 receptors (IPOne TR-FRET), Example 28; conditions: for huM1/A9L Smax: percentage of maximal stimulation by carbachol; for huM1/A9L ED50 relative to CCh*: potency relative to carbachol at its EC50, semi-quantitative; for potency and efficacy at M1 muscarinic receptors (in words): huM1/A9L
T1 construct: host or cells: A9L cells
T1 sequence (P11229 1-460): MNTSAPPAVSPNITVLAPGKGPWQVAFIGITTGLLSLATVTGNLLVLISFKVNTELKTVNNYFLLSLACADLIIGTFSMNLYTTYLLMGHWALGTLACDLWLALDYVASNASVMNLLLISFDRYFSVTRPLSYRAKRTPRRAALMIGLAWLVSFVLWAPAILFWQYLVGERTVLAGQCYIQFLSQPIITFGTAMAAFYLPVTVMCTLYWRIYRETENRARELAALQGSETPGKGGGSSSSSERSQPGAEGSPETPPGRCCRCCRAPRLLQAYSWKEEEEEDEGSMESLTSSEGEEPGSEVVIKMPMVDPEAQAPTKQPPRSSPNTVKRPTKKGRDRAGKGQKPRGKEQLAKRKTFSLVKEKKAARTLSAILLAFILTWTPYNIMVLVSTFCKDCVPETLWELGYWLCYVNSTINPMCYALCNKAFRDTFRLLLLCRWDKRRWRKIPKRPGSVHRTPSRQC
Description: (§1) Muscarinic M1 and M3 agonist activity was evaluated by measuring the stimulation of inositol phosphate (IP) production in the presence of lithium chloride from A9L cells transfected with expression plasmids containing human muscarinic M1 and M3 receptors, respectively. The cell lines were a gift from Professor W Messer, and the methods were as described in Tejada F R et al. J. Med. Chem. 2006; 49: 7518-31 except that the assay was scaled down to run in 384 well plates, and IP was measured in the cell lysates using the non-isotopic IPOne TR-FRET assay (CIS-BIO, Inc).
(§2) Cells were grown to 90% confluence in 384 well hi-base plates (Greiner Bio-One), compounds were added at suitable concentrations in growth medium containing 10 mM LiCl, buffered with an extra 10 mM HEPES (pH7.4), and incubated for 60 minutes at 37° C. Cells were lysed and assayed for IP following the manufacturer's instructions.
(§3) The value for a full agonist is 100%, while partial agonists give values below 100%.

[2] = target: T2, human muscarinic M3 receptors (Homo sapiens, UniProt P20309); test: IP production in A9L cells with human M3 receptors (IPOne TR-FRET), Example 28; conditions: for huM3/A9L Smax: percentage of maximal stimulation by carbachol; for huM3/A9L ED50 relative to CCh*: potency relative to carbachol at its EC50, semi-quantitative
T2 construct: host or cells: A9L cells
T2 sequence (P20309 whole entry): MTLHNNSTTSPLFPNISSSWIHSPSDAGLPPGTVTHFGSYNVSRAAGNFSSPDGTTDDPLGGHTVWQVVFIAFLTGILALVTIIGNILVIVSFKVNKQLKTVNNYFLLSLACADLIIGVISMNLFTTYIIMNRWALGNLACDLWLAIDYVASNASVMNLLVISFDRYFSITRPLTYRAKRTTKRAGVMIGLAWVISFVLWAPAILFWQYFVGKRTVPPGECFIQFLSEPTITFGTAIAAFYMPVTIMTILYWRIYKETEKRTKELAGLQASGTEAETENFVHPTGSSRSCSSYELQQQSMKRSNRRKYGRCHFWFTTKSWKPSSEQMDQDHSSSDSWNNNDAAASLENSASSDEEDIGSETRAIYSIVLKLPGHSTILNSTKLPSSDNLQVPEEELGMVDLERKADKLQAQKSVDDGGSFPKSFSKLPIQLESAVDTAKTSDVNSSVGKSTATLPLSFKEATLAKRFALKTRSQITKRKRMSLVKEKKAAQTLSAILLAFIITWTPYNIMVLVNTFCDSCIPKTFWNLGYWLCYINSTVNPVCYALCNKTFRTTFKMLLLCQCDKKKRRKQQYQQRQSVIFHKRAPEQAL
Description: as §1, §2, §3

[3] = target: T2, human muscarinic M3 receptors; conditions: relative to the potency of carbachol at its EC50
Description: (§4) Muscarinic M1 and M3 agonist activity was evaluated by measuring the stimulation of inositol phosphate (IP) production in the presence of lithium chloride from A9L cells transfected with expression plasmids containing human muscarinic M1 and M3 receptors, respectively. The cell lines were a gift from Professor William Messer, and the methods were as described in Tejada et al. (J. Med. Chem. 2006; 49: 7518-31) except that the assay was scaled down to run in 384-well plates and the concentration of inositol-1-phosphate in the lysates was determined using the non-isotopic IP-One Terbium TR-FRET assay kit (Cisbio Bioassays, cat. #62IPAPEJ) according to the manufacturer's instructions.
(§5) Cells were grown to 90% confluence in 384-well high-base, small-volume plates (Greiner Bio-One), compounds were added at suitable concentrations in growth medium containing 10 mM LiCl, buffered with an extra 10 mM HEPES (pH=7.4), and incubated for 60 minutes at 37° C. Cells were lysed and assayed for IP following the manufacturer's instructions.
as §3

[4] = target: T1, human muscarinic M1 receptors; conditions: relative to the potency of carbachol at its EC50
Description: as §4, §5, §3

Structure (SMILES)	huM1/A9L Smax [1] [%]	huM1/A9L ED50 relative to CCh* [1]	huM3/A9L Smax [2] [%]	huM3/A9L ED50 relative to CCh* [2]	potency and efficacy at M1 muscarinic receptors (in words) [1]	huM3/A9L Potency relative to carbachol [3]	huM1/A9L Potency relative to carbachol [4]
c1nsc(C2CCCNC2)n1 (stereo not drawn) [Compound 12b, 5-(piperidin-3-yl)-1,2,4-thiadiazol]	100	− (− potency <0.5-0.1x CCh)	60	−− (−− potency <0.1x CCh)			
Cc1noc([C@H]2CCCN[C@@H]2C)n1 [Compound 25]	3	inactive	20	inactive			
Nc1noc(C2CCCNC2)n1 (stereo not drawn) [Compound 27, 3-Amino-5-(piperidin-3-yl)-1,2,4-oxadiazole]	97	+ (+ potency 2-10x CCh)	20	+/− (+/− potency 0.5-2x CCh)			
Cc1noc(C2CCNC2)n1 (stereo not drawn) [Compound 31, 3-methyl-5-(pyrrolidin-3-yl)-1,2,4-oxadiazole]	113	+ (+ potency 2-10x CCh)	60	− (− potency <0.5-0.1x CCh)			
Cc1noc(C2CCCN(C)C2)n1 (stereo not drawn) [Compound 5, 3-Methyl-5-(1-methylpiperidin-3-yl)-1,2,4-oxadiazole]	20	inactive	20	inactive	essentially inactive		
Cc1noc([C@H]2CNCC[C@H]2C)n1 [Compound 22]	7	inactive	15	inactive			
Cc1noc(C2CCC(C)NC2)n1 (stereo not drawn) [Compound 18, 3-Methyl-5-(6-methylpiperidin-3-yl)-1,2,4-oxadiazole]	14	inactive	18	inactive			
Cc1nsc(C2CCCNC2)n1.Cl (stereo not drawn) [Compound 12a, 3-methyl-5-(piperidin-3-yl)-1,2,4-thiadiazole hydrochloride]	101	+ (+ potency 2-10x CCh)	58	+ (+ potency 2-10x CCh)			
Cc1noc([C@@H]2CNC[C@@H](C)C2)n1 [Compound 21]	18	inactive	14	inactive			
Cc1noc([C@@H]2CNCC[C@H]2C)n1 [Compound 23]	23	inactive	19	inactive			
CCc1noc(C2CCCNC2)n1 (stereo not drawn) [Compound 38, 3-ethyl-5-(piperidin-3-yl)-1,2,4-oxadiazo1e]	15	inactive	<14	inactive	essentially inactive		
Cc1noc([C@H]2CNC[C@@H](C)C2)n1 [Compound 20]	9	inactive	20	inactive			
Cc1noc(C23CNCC2C3)n1 (racemic) [Compound 121, 5-(4,4-d2-3-Azabicyclo[3.1.0]hexan-1-yl)-3-methyl-1,2,4-oxadiazole]						0.45	1.10
Cc1noc([C@H]2CC[C@H](C)NC2)n1 [Compound 19]	15	inactive	34	inactive			
Cc1noc([C@@H]2CCCN[C@@H]2C)n1 [Compound 24]	41	−− (−− potency <0.1x CCh)	32	inactive			
